Data reported in US11976083B2, “Inhibitors of peptidylarginine deiminases” (Gilead Sciences, Inc., priority 2020, dated 2024).

The compounds below were run against T1, human PAD4 (Homo sapiens, UniProt Q9UM07) (assay: In vitro PAD4 BAEE biochemical assay). Conditions: BAEE substrate 3 mM, 5 nM PAD4, 2 mM calcium chloride; geometric mean of multiple experiments.
T1 construct: human PAD4 (NM_012387), A2-P663, was PCR amplified; His-SUMO (N, cleaved yes); made in house; host or cells: E. coli BL21(DE3)
T1 sequence (Q9UM07 2-663): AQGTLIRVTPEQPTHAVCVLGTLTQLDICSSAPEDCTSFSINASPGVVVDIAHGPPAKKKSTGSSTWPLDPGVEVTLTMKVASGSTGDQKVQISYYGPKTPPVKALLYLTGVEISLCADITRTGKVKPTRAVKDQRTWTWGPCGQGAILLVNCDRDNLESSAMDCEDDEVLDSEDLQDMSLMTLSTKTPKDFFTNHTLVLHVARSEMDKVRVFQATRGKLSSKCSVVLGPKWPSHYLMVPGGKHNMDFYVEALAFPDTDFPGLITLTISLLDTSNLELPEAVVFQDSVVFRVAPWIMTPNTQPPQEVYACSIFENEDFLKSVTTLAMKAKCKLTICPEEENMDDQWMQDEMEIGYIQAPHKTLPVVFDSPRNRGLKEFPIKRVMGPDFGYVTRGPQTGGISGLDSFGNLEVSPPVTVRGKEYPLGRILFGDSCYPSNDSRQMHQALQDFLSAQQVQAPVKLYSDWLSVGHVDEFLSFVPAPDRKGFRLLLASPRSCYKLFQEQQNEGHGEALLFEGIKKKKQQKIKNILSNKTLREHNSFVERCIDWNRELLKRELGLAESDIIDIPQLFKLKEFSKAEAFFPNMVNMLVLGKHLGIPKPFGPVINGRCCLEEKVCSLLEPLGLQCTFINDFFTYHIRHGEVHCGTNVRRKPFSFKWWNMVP
How it was run: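 Recombinant PAD4 (5 nM final) with 2 mM CaCl2 was preincubated with compound for 30 min at 25 °C in MOPS pH 7.6 buffer with DTT, then reacted with 3 mM BAEE for 2 h at 25 °C. Released ammonia was detected fluorimetrically with o-phthalaldehyde/DTT; IC50 from four-parameter fit, geometric mean of experiments.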
An IC50 of 57 nM was found for COc1cc(C(=O)N2CCC[C@@H](N)C2)cc2nc(-c3cc4ccc5nc4n3CCCCC[C@H](OC)C(C)(C)C(=O)N[C@@H]5C)n(C)c12 [Example 154, (7~{S},11~{R})-17-[5-[(3~{R})-3-aminopiperidine-1-carbonyl]-7-methoxy-1-methyl-benzimidazol-2-yl]-7-methoxy-8,8,11-trimethyl-1,10,19-triazatricyclo[10.5.2.0^{15,18}]nonadeca-12(19),13,15(18),16-tetraen-9-one] in this work. An IC50 of 77 nM was found for COc1cc(C(=O)N2CCC[C@@H](N)C2)cc2nc(-c3cc4ccc5cc4n3CCCCCCC3(CC3)C(=O)N[C@@H]5C)n(C)c12 [Example 155, (11~{R})-17-[5-[(3~{R})-3-aminopiperidine-1-carbonyl]-7-methoxy-1-methyl-benzimidazol-2-yl]-11-methyl-spiro[1,10-diazatricyclo[10.5.2.0^{15,18}]nonadeca-12(19),13,15(18),16-tetraene-8,1′-cyclopropane]-9-one] in this work. An IC50 of 56 nM was found for COc1cc(C(=O)N2CCC[C@@H](N)C2)cc2nc(-c3cc4ccc5cc4n3CCCCCOC(C)(C)C(=O)N[C@@H]5C)n(C)c12 [Example 156, (11~{R})-17-[5-[(3~{R})-3-aminopiperidine-1-carbonyl]-7-methoxy-1-methyl-benzimidazol-2-yl]-8,8,11-trimethyl-7-oxa-1,10-diazatricyclo[10.5.2.0^{15,18}]nonadeca-12(19),13,15(18),16-tetraen-9-one] in this work. An IC50 of 36 nM was found for COc1cc(C(=O)N2CCC[C@@H](N)C2)cc2nc(-c3cc4ccc5nc4n3CCCCC[C@@H]3C[C@H]3C(=O)N[C@@H]5C)n(C)c12 [Example 157, (2~{R},5~{R},7~{R})-14-[5-[(3~{R})-3-aminopiperidine-1-carbonyl]-7-methoxy-1-methyl-benzimidazol-2-yl]-2-methyl-3,13,19-triazatetracyclo[11.5.2.0^{5,7}.0^{16,20}] icosa-1(19),14,16(20),17-tetraen-4-one] in this work. An IC50 of 241 nM was found for COc1cc(C(=O)N2CCC[C@@H](N)C2)cc2nc(-c3cc4ccc5nc4n3CCCCC[C@H]3C[C@@H]3C(=O)N[C@@H]5C)n(C)c12 [Example 158, (2~{R},5~{S},7~{S})-14-[5-[(3~{R})-3-aminopiperidine-1-carbonyl]-7-methoxy-1-methyl-benzimidazol-2-yl]-2-methyl-3,13,19-triazatetracyclo[11.5.2.0^{5,7}.0^{16,20}] icosa-1(19),14,16(20),17-tetraen-4-one] in this work. An IC50 of 62 nM was found for COc1cc(C(=O)N2CCC[C@@H](N)C2)cc2nc(-c3cc4ccc5cc4n3CCCCCCC3(CC3)C(=O)N[C@@H]5C)n(C3CC3)c12 [Example 159, (11~{R})-17-[5-[(3~{R})-3-aminopiperidine-1-carbonyl]-1-cyclopropyl-7-methoxy-benzimidazol-2-yl]-11-methyl-spiro[1,10-diazatricyclo[10.5.2.0^{15,18}]nonadeca-12(19),13,15(18),16-tetraene-8,1′-cyclopropane]-9-one] in this work. An IC50 of 53 nM was found for COc1cc(C(=O)N2CCC[C@@H](N)C2)cc2nc(-c3cc4ccc5cc4n3CCCCCCC(C)(C)C(=O)N[C@@H]5C)n(C3CC3)c12 [Example 160, (11~{R})-17-[5-[(3~{R})-3-aminopiperidine-1-carbonyl]-1-cyclopropyl-7-methoxy-benzimidazol-2-yl]-8,8,11-trimethyl-1,10-diazatricyclo[10.5.2.0^{15,18}]nonadeca-12(19),13,15(18),16-tetraen-9-one] in this work. An IC50 of 108 nM was found for COc1cc(C(=O)N2CCC[C@@H](N)C2)cc2nc(-c3cc4ccc5nc4n3C[C@H]3C[C@@H]3[C@H](C)OCCC(=O)N[C@@H]5C)n(C)c12 [Example 161, (3~{S},5~{S},6~{S},12~{R})-18-[5-[(3~{R})-3-aminopiperidine-1-carbonyl]-7-methoxy-1-methyl-benzimidazol-2-yl]-6,12-dimethyl-7-oxa-1,11,20-triazatetracyclo[11.5.2.0^{3,5}.0^{16,19}] icosa-13(20),14,16(19),17-tetraen-10-one] in this work. An IC50 of 55 nM was found for COc1cc(C(=O)N2CCC[C@@H](N)C2)cc2nc(-c3cc4ccc5nc4n3C[C@H]3C[C@@H]3[C@@H](C)OCCC(=O)N[C@@H]5C)n(C)c12 [Example 162, (3~{S),5~{S},6~{R},12~{R})-18-[5-[(3~{R})-3-aminopiperidine-1-carbonyl]-7-methoxy-1-methyl-benzimidazol-2-yl]-6,12-dimethyl-7-oxa-1,11,20-triazatetracyclo[11.5.2.0^{3,5}.0^{16,19}] icosa-13(20),14,16(19),17-tetraen-10-one] in this work. An IC50 of 51 nM was found for COc1cc(C(=O)N2CCC[C@@H](N)C2)cc2nc(-c3cc4ccc5nc4n3C[C@H]3C[C@@H]3CCCCC(=O)N[C@@H]5C)n(C)c12 [Example 163, (3~{S},5~{S},12~{R})-18-[5-[(3~{R})-3-aminopiperidine-1-carbonyl]-7-methoxy-1-methyl-benzimidazol-2-yl]-12-methyl-1,11,20-triazatetracyclo[11.5.2.0^{3,5}.0^{16,19}] icosa-13(20),14,16(19),17-tetraen-10-one] in this work. An IC50 of 33 nM was found for COc1cc(C(=O)N2CCC[C@@H](N)C2)cc2nc(-c3cc4ccc5cc4n3CCCCC[C@H]3C[C@@H]3C(=O)N[C@@H]5C)n(C)c12 [Example 164, (2~{R},5~{S},7~{S})-14-[5-[(3~{R})-3-aminopiperidine-1-carbonyl]-7-methoxy-1-methyl-benzimidazol-2-yl]-2-methyl-3,13-diazatetracyclo[11.5.2.0^{5,7}.0^{16,20}] icosa-1(19),14,16(20),17-tetraen-4-one] in this work. An IC50 of 235 nM was found for COc1cc(C(=O)N2CCC[C@@H](N)C2)cc2nc(-c3cc4ccc5cc4n3CCCCC[C@@H]3C[C@H]3C(=O)N[C@@H]5C)n(C)c12 [Example 165, (2~{R},5~{R},7~{R})-14-[5-[(3~{R})-3-aminopiperidine-1-carbonyl]-7-methoxy-1-methyl-benzimidazol-2-yl]-2-methyl-3,13-diazatetracyclo[11.5.2.0^{5,7}.0^{16,20}] icosa-1(19),14,16(20),17-tetraen-4-one] in this work. An IC50 of 49 nM was found for COc1cc(C(=O)N2CCC[C@@H](N)C2)cc2nc(-c3cc4ccc5nc4n3C[C@H]3C[C@@H]3CCCC(C)C(=O)N[C@@H]5C)n(C)c12 (stereo partly shown) [Example 166, (3~{S},5~{S},12~{R})-18-[5-[(3~{R})-3-aminopiperidine-1-carbonyl]-7-methoxy-1-methyl-benzimidazol-2-yl]-9,12-dimethyl-1,11,20-triazatetracyclo[11.5.2.0^{3,5}.0^{16,19}] icosa-13(20),14,16(19),17-tetraen-10-one] in this work. An IC50 of 90 nM was found for COc1cc(C(=O)N2CCC[C@@H](N)C2)cc2nc(-c3cc4ccc5nc4n3C[C@@H]3C[C@H]3CC[C@H]3C[C@@H]3C(=O)N[C@@H]5C)n(C)c12 [Example 167, (3~{R},5~{R},8~{S},10~{S},13~{R})-19-[5-[(3~{R})-3-aminopiperidine-1-carbonyl]-7-methoxy-1-methyl-benzimidazol-2-yl]-13-methyl-1,12,21-triazapentacyclo[12.5.2.0^{3,5}.0^{8,10}.0^ {17,20}]henicosa-14(21),15,17(20),18-tetraen-11-one] in this work. An IC50 of 39 nM was found for COc1cc(C(=O)N2CCC[C@@H](N)C2)cc2nc(-c3cc4ccc5nc4n3C[C@@H]3C[C@H]3CC[C@@H]3C[C@H]3C(=O)N[C@@H]5C)n(C)c12 [Example 168, (3~{R},5~{R},8~{R},10~{R},13~{R})-19-[5-[(3~{R})-3-aminopiperidine-1-carbonyl]-7-methoxy-1-methyl-benzimidazol-2-yl]-13-methyl-1,12,21-triazapentacyclo[12.5.2.0^{3,5}.0^{8,10}.0^ {17,20}]henicosa-14(21),15,17(20),18-tetraen-11-one] in this work. An IC50 of 69 nM was found for C[C@H]1NC(=O)C(C)(C)CCCCCCn2c(-c3nc4cc(C(=O)N5CCC[C@@H](N)C5)c(F)cc4n3C3CC3)cc3ccc1nc32 [Example 169, (11~{R})-17-[5-[(3~{R})-3-aminopiperidine-1-carbonyl]-1-cyclopropyl-6-fluoro-benzimidazol-2-yl]-8,8,11-trimethyl-1,10,19-triazatricyclo[10.5.2.0^{15,18}]nonadeca-12(19),13,15(18),16-tetraen-9-one] in this work. An IC50 of 118 nM was found for COc1cc(C(=O)N2CCC[C@@H](N)C2)cc2nc(-c3cc4ccc5nc4n3CCCCCc3c(cnn3C)C(=O)N[C@@H]5C)n(C)c12 [Example 170, (2~{R})-16-[5-[(3~{R})-3-aminopiperidine-1-carbonyl]-7-methoxy-1-methyl-benzimidazol-2-yl]-2,8-dimethyl-3,7,8,15,21-pentazatetracyclo[13.5.2.0^{5,9).0^{18,22}] docosa-1(21),5(9),6,16,18(22),19-hexaen-4-one] in this work. An IC50 of 804 nM was found for COc1cc(C(=O)N2CCC[C@@H](N)C2)cc2nc(-c3cc4ccc5nc4n3CCCC#Cc3cnn(C)c3C(=O)N[C@@H]5C)n(C)c12 [Example 171, (2~{R})-16-[5-[(3~{R})-3-aminopiperidine-1-carbonyl]-7-methoxy-1-methyl-benzimidazol-2-yl]-2,6-dimethyl-3,6,7,15,21-pentazatetracyclo[13.5.2.0^{5,9}.0^{18,22}] docosa-1(21),5(9),7,16,18(22),19-hexaen-10-yn-4-one] in this work. An IC50 of 101 nM was found for COc1cc(C(=O)N2CCC[C@@H](N)C2)cc2nc(-c3cc4ccc5nc4n3CCCCCc3cnn(C)c3C(=O)N[C@@H]5C)n(C)c12 [Example 172, (2~{R})-16-[5-[(3~{R})-3-aminopiperidine-1-carbonyl]-7-methoxy-1-methyl-benzimidazol-2-yl]-2,6-dimethyl-3,6,7,15,21-pentazatetracyclo[13.5.2.0^{5,9}.0^{18,22}] docosa-1(21),5(9),7,16,18(22),19-hexaen-4-one] in this work.
